Measured values from patent US5168102A, “Endocrine manipulation to improve body composition of poultry” (priority 1990, dated 1992).
Like-named read-outs stand apart in the source and are kept apart here.

What was measured:
[1] = Example 1: growth and feed efficiency of broiler cockerels fed thyroid-active substances with or without daily ncGH injection; format: in vivo, broiler cockerels (Ross X Arbor Acre strain)
Description: (§1) The purpose of this study was to determine the effect manipulating blood levels of thyroid hormones and/or growth hormone on growth performance and body composition of broiler chickens. […] Purified natural chicken growth hormone (ncGH) was obtained from the Research and Education Center, Harbor-UCLA Medical Center, Torrance, Calif. […] The premix (200 g) was then used to prepare 50 kg batches of each experimental diet according to the formula for broiler-finisher ration described in Table 1. The diet containing 0.5% PTU was prepared by mixing 250 g of PTU into 49.75 kg of the basal ration (Table 1).
(§2) Broiler cockerels (Ross X Arbor Acre strain) were raised to 3 weeks-of-age in a battery-brooder and then transferred to wire grow-out cages (4 birds/pen) held in two controlled-environment rooms (10 pens/room). Beginning at 3 weeks of age, eight birds (2 pens of 4 birds) were randomly assigned to each of 10 treatments. The chickens were provided the experimental diets and water ad libitum. […] For injection, the ncGH was reconstituted in sterile 0.025M sodium bicarbonate buffer (pH 9.8). The 10 treatments were administered for 21 days (i.e., from 3 to 6 weeks of age).
(§3) Measurement of body weight and feed consumption at weekly intervals allowed calculation of the average daily gain (ADG, g/bird/day), average daily feed consumption (ADFC, g/bird/day) and the feed-to-gain ratio (FIG, kg feed/kg gain) over the 21 day experimental period. Blood samples were taken each week (4, 5, and 6 weeks) just before (pre-injection) and 4 hours post-injection of ncGH. […] At the conclusion of the study, birds were killed and the carcasses frozen for proximate analysis. The frozen carcasses were ground in a meat grinder and aliquots of each ground carcass taken for determination of moisture, protein, fat and ash by established analytical procedures (Official Method of Analysis, Edition 13, W. Horwitz ed., Association of Official Analytical Chemist, Washington, D.C., 1980). Body composition data are presented as a percent of live weight at 6 weeks-of-age. Least squares regression analysis was used to test for significant differences (P<0.05) due treatment.

[2] = Example 1: body composition (proximate analysis of carcass); format: in vivo, broiler cockerels (Ross X Arbor Acre strain)
Description: as §1, §2, §3

[3] = Description: Referring now to broiler chickens as a benchmark for the beneficial effects of this invention, it must be noted that these chickens grow from a weight of 30 to 50 grams at hatching to about 1.5-3 or even as much as 5 kilograms of body weight at market age. Of this market weight, 15-20 wt.-% is protein, 2-3 wt.-% is inorganic (showing up as ash in proximate analysis of body composition), and more than 10 wt.-% (e.g. 10-20 wt.-%) is fat, which means that the protein:fat ratio (by weight) is likely to be at or below 1.5:1 and certainly well below 2:1.
[4] = supplemented diets; cited from earlier work
[5] = exogenous; cited from earlier work
[6] = system: receptor; settings: cited from earlier work
[7] = Group 1, dietary, 6 weeks-of-age, N = 8

Question: Which results are given for `N[C@@H](Cc1cc(I)c(Oc2ccc(O)c(I)c2)c(I)c1)C(=O)O` [T3, 3,3',5-triiodo-L-thyronine]?
Answer: BW (body weight) ([1]; 1 ppm T3, 1 ppm T4, 5 ppm TRH or 0.5% PTU in feed, 3 to 6 weeks of age, Group 1, mean ±SEM): 1.70 ± .09 kg; effect on growth rate and feed efficiency ([1]; Group 1, dietary): did not affect growth rate or feed efficiency; ADFC (average daily feed consumption) ([1]; Group 1, dietary, 21 days): 101.1 ± 5.2 g/bird/day; ADG (average daily weight gain) ([1]; Group 1, dietary, 21 days): 48.8 ± 4.3 g/bird/day; FTG (feed-to-gain ratio) ([1]; Group 1, dietary, 21 days): 2.08 ± .08 kg feed/kg gain; Body composition: Ash [2, 7]: 2.19 ± .05 % BW; Body composition: Fat [2, 7]: 10.1 ± 1.2 % BW; Body composition: Protein [2, 7]: 18.4 ± .22 % BW; Body composition: Water [2, 7]: 68.6 ± 1.0 % BW; effect on fat deposition ([2]; finishing phase): decreases fat deposition in chickens; body fat content, reduction ([2]; vs CF group): 17%; effect on body protein, water and ash ([2]; vs CF group): body protein and water were slightly increased; effect on weight gain ([3]; 0.1 ppm): no significant adverse effect upon weight gain can be detected; protein content of the carcass relative to fat content ([3]; 0.1 ppm): improved relative to fat content; effect on growth rate ([3]; 0.25 ppm): virtually no statistically significant adverse effect on growth rate; effect on weight gain ([3]; 1 ppm): some deviation from normal weight gain is observed; depressed growth rate in dwarf strains [4]: restored to normal; growth deficit of hypophysectomized chickens [5]: correct the growth deficit; metabolic activity of thyroid hormones [6]: most active compounds of formula I
